This assay concerns the target Cholesteryl ester transfer protein (Homo sapiens) (UniProt P11597). The assay can be described thus: inhibition of human CETP assessed as cholesteryl ester transfer by fluorescence transfer assay.
Sequence of Cholesteryl ester transfer protein (Homo sapiens) (P11597 whole entry, looked up): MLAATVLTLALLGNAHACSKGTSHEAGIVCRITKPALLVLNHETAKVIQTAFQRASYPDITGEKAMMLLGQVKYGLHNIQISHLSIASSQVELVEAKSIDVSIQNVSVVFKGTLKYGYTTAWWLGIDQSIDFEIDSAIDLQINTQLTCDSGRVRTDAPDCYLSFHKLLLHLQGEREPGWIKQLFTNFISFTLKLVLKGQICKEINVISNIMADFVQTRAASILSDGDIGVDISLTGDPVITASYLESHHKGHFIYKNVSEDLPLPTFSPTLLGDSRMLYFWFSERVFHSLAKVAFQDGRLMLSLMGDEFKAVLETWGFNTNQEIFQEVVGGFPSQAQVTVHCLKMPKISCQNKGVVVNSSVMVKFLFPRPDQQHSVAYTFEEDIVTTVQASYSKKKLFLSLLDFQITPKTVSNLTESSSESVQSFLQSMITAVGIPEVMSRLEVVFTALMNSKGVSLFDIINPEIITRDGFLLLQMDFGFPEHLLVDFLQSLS
As a reminder, the IC50 is the concentration at which inhibition is half-maximal. Turning to `Cc1ccccc1OCC(=O)Nc1ccc(-c2nc3cc([N+](=O)[O-])ccc3o2)cc1`, the half-inhibitory concentration (IC50) was 940 nM.

In the case of `Cc1ccc2oc(-c3ccc(NC(=O)COc4ccccc4C)cc3)nc2c1`, the IC50 amounted to 2000 nM.

As for `Cc1ccccc1OCC(=O)Nc1ccc(-c2nc3ccc(F)cc3o2)cc1`, the IC50 was determined as 7500 nM.

With `Cc1ccccc1OCC(=O)Nc1ccc(-c2nc3ccc([N+](=O)[O-])cc3o2)cc1`, the IC50 came to 3200 nM.

`Cc1ccccc1OCC(=O)Nc1ccc(-c2nc3cc(C(C)O)ccc3o2)cc1` (configuration not stated): the IC50 worked out at 3400 nM.

Turning to `Cc1ccccc1OCC(=O)Nc1ccc(-c2nc3cc(Br)cc(F)c3o2)cc1`, the IC50 was 910 nM.

Regarding `CC(=O)c1cc(C#N)cc2nc(-c3ccc(NC(=O)COc4ccccc4C)cc3)oc12`, the 50% inhibitory concentration (IC50) stood at 86 nM.

In the case of `CC#CC(C)(O)c1cc(C#N)cc2nc(-c3ccc(NC(=O)COc4ccccc4C)cc3)oc12` (configuration not stated), the IC50 was 160 nM.

Turning to `Cc1ccccc1OCC(=O)Nc1ccc(-c2nc3c(C)c(Br)ccc3o2)cc1`, the IC50 was above 100000 nM.

Consider `Cc1ccccc1OCC(=O)Nc1ccc(-c2nc3cccc(Cl)c3o2)cc1`, for which the IC50 came to 21000 nM.

Regarding `Cc1cc2oc(-c3ccc(NC(=O)COc4ccccc4C)cc3)nc2cc1Cl`, the IC50 was above 100000 nM.

As for `Cc1ccccc1OCC(=O)Nc1ccc(-c2nc3cc(Br)cc(C(C)(C)O)c3o2)cc1`, the concentration for half-maximal inhibition (IC50) came out at 44 nM.

The values are drawn from BindingDB's records for doi:10.1016/j.bmcl.2009.10.099 (Merck Research Laboratories, 2010).
